In test [1] the target is T1, CCK-1 receptor (Homo sapiens, UniProt P32238).
T1 construct: expressed in transfected cells; host or cells: CHO-K1
T1 sequence (P32238 1-428): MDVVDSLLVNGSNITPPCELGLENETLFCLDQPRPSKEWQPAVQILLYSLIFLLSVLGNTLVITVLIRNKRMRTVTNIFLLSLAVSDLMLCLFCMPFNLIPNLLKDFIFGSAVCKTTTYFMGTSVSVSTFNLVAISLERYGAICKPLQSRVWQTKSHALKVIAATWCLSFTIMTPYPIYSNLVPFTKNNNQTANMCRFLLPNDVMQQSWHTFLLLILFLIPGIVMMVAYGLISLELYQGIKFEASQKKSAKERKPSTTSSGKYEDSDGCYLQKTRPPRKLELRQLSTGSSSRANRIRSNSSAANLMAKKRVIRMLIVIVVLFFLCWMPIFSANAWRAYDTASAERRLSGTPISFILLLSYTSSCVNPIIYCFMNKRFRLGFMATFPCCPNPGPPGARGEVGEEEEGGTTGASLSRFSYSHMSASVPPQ
The test can be described thus: CCK1 binding assay ([125I]-BH-CCK-8S displacement, CHO-K1 membranes). The conditions noted are these: membranes of CHO-K1 cells stably transfected with the CCK-1 receptor, 20 pM [125I]-BH-CCK-8S, 0.3 μM PD-134,308 present, 60 min at 21±3° C.; for Ki: read-out: CCK1 pKi (converted). An outline of the steps: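 Membranes from CHO-K1 cells stably expressing CCK-1 incubated 1 h at 21±3° C with 20 pM [125I]-BH-CCK-8S in HEPES buffer pH 7.2 containing 0.3 μM PD-134,308 to block CCK-2. Bound radioactivity read by gamma counting after filtration. pKi derived via Cheng-Prusoff, with specific binding defined using 2-NAP.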

Test [2] deals with T2, CCK2 receptor (Homo sapiens, UniProt P32239).
T2 construct: analyzed for ZFP expression as well as CCK2R induction upon addition of doxycycline to the culture medium; endogenous in cells
T2 sequence (P32239 1-447): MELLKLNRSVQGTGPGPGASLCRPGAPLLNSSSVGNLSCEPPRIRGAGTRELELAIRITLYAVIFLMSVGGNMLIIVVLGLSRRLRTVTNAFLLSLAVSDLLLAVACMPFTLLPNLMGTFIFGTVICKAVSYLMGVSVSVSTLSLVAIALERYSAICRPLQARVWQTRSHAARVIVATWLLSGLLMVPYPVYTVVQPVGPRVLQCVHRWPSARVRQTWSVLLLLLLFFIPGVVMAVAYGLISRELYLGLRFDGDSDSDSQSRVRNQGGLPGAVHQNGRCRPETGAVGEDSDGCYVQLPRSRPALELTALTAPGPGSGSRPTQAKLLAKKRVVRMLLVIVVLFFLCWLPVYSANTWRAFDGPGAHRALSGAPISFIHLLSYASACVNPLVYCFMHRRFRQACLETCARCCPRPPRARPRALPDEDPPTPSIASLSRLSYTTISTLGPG
The test can be described thus: CCK2 binding assay ([125I]-BH-CCK-8S displacement, HEKZFP membranes). The conditions noted are these: membranes of doxycycline-induced HEKZFP cells, 20 pM [125I]-BH-CCK-8S, 60 min at 21±3° C.; for Ki: read-out: CCK2 pKi (converted).

As to `CC(CNC(=O)c1ccc(I)cc1NS(=O)(=O)c1c(F)cccc1F)c1ccc([N+](=O)[O-])cc1` (centres unmarked) [Example 48, 2-(2,6-Difluoro-benzenesulfonylamino)-4-iodo-N-[2-(4-nitro-phenyl)-propyl]-benzamide], the values for the Ki in test [1] and in test [2] were 0.0501 µM and 2 µM, respectively.
For `C[C@@H](NC(=O)c1ccc(Cl)cc1NS(=O)(=O)c1cccc2nsnc12)[C@@H](O)c1ccccc1` [Example 49, 2-(Benzo[1,2,5]thiadiazole-4-sulfonylamino)-4-chloro-N-((2S,1R)-2-hydroxy-1-methyl-2-phenyl-ethyl)-benzamide], in that order: 0.2 µM and 2 µM.
For `O=C(NC1Cc2ccccc2C1)c1ccc(Cl)cc1NS(=O)(=O)c1cccc2nsnc12` [Example 50, 2-(Benzo[1,2,5]thiadiazole-4-sulfonylamino)-4-chloro-N-indan-2-yl-benzamide], in that order: 0.631 µM and 6.31 µM.
For `C[C@@H](NC(=O)c1ccc(Cl)cc1NS(=O)(=O)c1cccc2nsnc12)[C@@H](O)c1ccc(Cl)cc1` [Example 55, 2-(Benzo[1,2,5]thiadiazole-4-sulfonylamino)-4-chloro-N-[(1R,2S)-2-(4-chloro-phenyl)-2-hydroxy-1-methyl-ethyl]-benzamide], in that order: 0.0398 µM and 1 µM.
For the compound `C[C@H](c1ccc(Cl)c(Cl)c1)[C@H](NC(=O)c1ccc(Cl)cc1NS(=O)(=O)c1cccc2nsnc12)C(=O)O` [Example 56, (2S,3R)-2-[2-(Benzo[1,2,5]thiadiazole-4-sulfonylamino)-4-chloro-benzoylamino]-3-(3,4-dichloro-phenyl)-butyric acid], in test [1], the “CCK1 pKi” value came to 6.3. Further, the “CCK2 pKi” value in test [2] is given as 6.8.
With `O=C(N[C@H](Cc1ccc(Cl)c(Cl)c1)C(=O)O)c1ccc(I)cc1NS(=O)(=O)c1cccc2nccnc12` [Example 60, (R)-3-(3,4-Dichloro-phenyl)-2-[4-iodo-2-(quinoxaline-5-sulfonylamino)-benzoylamino]-propionic acid], the Ki is 0.0794 µM in test [1] and 0.398 µM in test [2].
As for `O=C(N[C@H](Cc1ccc(Cl)cc1)C(=O)O)c1cc(Cl)ccc1NS(=O)(=O)c1cccc2nsnc12` [Example 62, (R)-2-[2-(Benzo[1,2,5]thiadiazole-4-sulfonylamino)-5-chloro-benzoylamino]-3-(4-chloro-phenyl)-propionic acid], the Ki in test [1] was 0.316 µM; in test [2], 3.16 µM.
The like results for `O=C(O)C[C@H](Cc1ccc(Cl)c(Cl)c1)NC(=O)c1ccc(Cl)cc1NS(=O)(=O)c1cccc2nccnc12` [Example 64, (S)-3-[4-Chloro-2-(quinoxaline-5-sulfonylamino)-benzoylamino]-4-(3,4-dichloro-phenyl)-butyric acid] were, in that order, 1.58 µM and 0.1 µM.
The like results for `COC(=O)[C@H](Cc1csc2ccccc12)NC(=O)c1ccc(Cl)cc1NS(=O)(=O)c1cccc2nccnc12` [Example 65, (S)-3-Benzo[b]thiophen-3-yl-2-[4-chloro-2-(quinoxaline-5-sulfonylamino)-benzoylamino]-propionic acid methyl ester] were, in that order, 0.316 µM and 0.794 µM.
The like results for `O=C(N[C@@H](Cc1csc2ccccc12)C(=O)O)c1ccc(Cl)cc1NS(=O)(=O)c1cccc2nccnc12` [Example 66, (S)-3-Benzo[b]thiophen-3-yl-2-[4-chloro-2-(quinoxaline-5-sulfonylamino)-benzoylamino]-propionic acid] were, in that order, 2 µM and 0.501 µM.
For `COC(=O)[C@H](Cc1ccc(Cl)cc1)NC(=O)c1cc(Cl)c(Cl)cc1NS(=O)(=O)c1cccc2nsnc12` [Example 67, (S)-2-[2-(Benzo[1,2,5]thiadiazole-4-sulfonylamino)-4,5-dichloro-benzoylamino]-3-(4-chloro-phenyl)-propionic acid methyl ester], the Ki in test [1] is 0.2 µM; in test [2], 0.251 µM.
Take `O=C(N[C@@H](Cc1ccc(Cl)cc1)C(=O)O)c1cc(Cl)c(Cl)cc1NS(=O)(=O)c1cccc2nsnc12` [Example 68, (S)-2-[2-(Benzo[1,2,5]thiadiazole-4-sulfonylamino)-4,5-dichloro-benzoylamino]-3-(4-chloro-phenyl)-propionic acid]: the values for the Ki in test [1] and in test [2] were 0.316 µM and 0.0316 µM, respectively.
For the compound `COC(=O)[C@@H](Cc1ccc(Cl)cc1)NC(=O)c1ccc(Cl)cc1NS(=O)(=O)c1ccc(F)cc1F` [Example 69, (R)-2-[4-Chloro-2-(2,4-difluoro-benzenesulfonylamino)-benzoylamino]-3-(4-chloro-phenyl)-propionic acid methyl ester], the Ki is 0.0631 µM in test [1] and 7.94 µM in test [2].
As for `O=C(NCCc1ccc(Cl)cc1Cl)c1ccc(Cl)cc1NS(=O)(=O)c1cccc2nsnc12` [Example 70, 2-(Benzo[1,2,5]thiadiazole-4-sulfonylamino)-4-chloro-N-[2-(2,4-dichloro-phenyl)-ethyl]-benzamide], the results for the Ki in test [1] and in test [2] were 0.2 µM and 6.31 µM, respectively.
For `COC(=O)[C@H](Cc1ccc(Cl)cc1)NC(=O)c1ccc(Cl)cc1NS(=O)(=O)c1ccc(F)cc1F` [Example 71, (S)-2-[4-Chloro-2-(2,4-difluoro-benzenesulfonylamino)-benzoylamino]-3-(4-chloro-phenyl)-propionic acid methyl ester], in that order: 0.126 µM and 2.51 µM.
For the compound `CC(CNC(=O)c1ccc(I)cc1NS(=O)(=O)c1cccc2nsnc12)c1ccc(Cl)cc1` (centres unmarked) [Example 72, 2-(Benzo[1,2,5]thiadiazole-4-sulfonylamino)-N-[2-(4-chloro-phenyl)-propyl]-4-iodo-benzamide], the figures for the Ki in test [1] and in test [2] were 0.0794 µM and 0.501 µM, respectively.
On to `C[C@H](NC(=O)c1ccc(Cl)cc1NS(=O)(=O)c1cccc2nsnc12)C(O)(c1ccccc1)c1ccccc1` [Example 74, (S)-2-(Benzo[1,2,5]thiadiazole-4-sulfonylamino)-4-chloro-N-(2-hydroxy-1-methyl-2,2-diphenyl-ethyl)-benzamide], for which the Ki in test [1] was 0.316 µM; in test [2], 7.94 µM.
For `O=C(NCCc1ccc(Cl)cc1Cl)c1ccccc1NS(=O)(=O)c1cccc2nsnc12` [Example 75, 2-(Benzo[1,2,5]thiadiazole-4-sulfonylamino)-N-[2-(2,4-dichloro-phenyl)-ethyl]-benzamide], in that order: 1 µM and 3.98 µM.
Consider `O=C(N[C@@H](Cc1ccc(F)cc1)C(=O)O)c1ccc(Cl)cc1NS(=O)(=O)c1cccc2nsnc12` [Example 76, (S)-2-[2-(Benzo[1,2,5]thiadiazole-4-sulfonylamino)-4-chloro-benzoylamino]-3-(4-fluoro-phenyl)-propionic acid], for which the Ki is 3.16 µM in test [1] and 0.0398 µM in test [2].
On to `O=C(N[C@@H](Cc1cccc(Cl)c1)C(=O)O)c1ccc(Cl)cc1NS(=O)(=O)c1cccc2nccnc12` [Example 78, (S)-3-(3-Chloro-phenyl)-2-[4-chloro-2-(quinoxaline-5-sulfonylamino)-benzoylamino]-propionic acid], for which the values for the Ki in test [1] and in test [2] were 3.98 µM and 0.0316 µM, respectively.
Turning to `O=C(NCCc1ccc(Br)cc1)c1ccc(Cl)cc1NS(=O)(=O)c1c(F)cccc1F` [Example 80, N-[2-(4-Bromo-phenyl)-ethyl]-4-chloro-2-(2,6-difluoro-benzenesulfonylamino)-benzamide], the Ki in test [1] is 0.1 µM; in test [2], 1.58 µM.
For `CC(CNC(=O)c1c(Cl)cccc1NS(=O)(=O)c1cccc2nsnc12)c1ccc(Cl)c(Cl)c1` (centres unmarked) [Example 81, 2-(Benzo[1,2,5]thiadiazole-4-sulfonylamino)-6-chloro-N-[2-(3,4-dichloro-phenyl)-propyl]-benzamide], in that order: 0.794 µM and 2 µM.

For the origin of these results see patent publication US7855292B2, “Sulfonamide compounds” (Janssen Pharmaceutica NV, priority 2004, dated 2010).
